EC50 data for 30 compounds are collected here from US10035760B2, “Inhibitors of human immunodeficiency virus replication” (priority 2013, dated 2018).

The test has as its system recombinant NL4-3 virus (Renilla luciferase) in MT-2 cells. The test can be described thus: HIV cell culture assay (antiviral activity, luciferase readout in infected MT-2 cells). Format: cell-based. Conditions: Renilla. A digest of the protocol: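 EC50 derived via median-effect equation from luciferase activity in MT-2 cells after 4–5 day infection, compound serially diluted. Virus: recombinant NL4-3 with Renilla luciferase replacing part of nef, made in 293T cells.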

The mark [1] stands for this setting: NL43, read-out: Activity, antiviral activity class, recombinant NL4-3 Renilla luciferase virus in MT-2 cells.
[2] abbreviates: NL43, recombinant NL4-3 Renilla luciferase virus in MT-2 cells.

pEC50: −log10 of the molar value. Like-named read-outs stand apart in the source and are kept apart here. Some results are limits rather than exact numbers.

With `Cc1ccccc1S(=O)(=O)NC(=O)N[C@@H](Cc1cccc2ccccc12)C(=O)N(C)c1ccc2c(c1)OCO2` [Example 83, (S)—N-(benzo[d][1,3]dioxol-5-yl)-N-methyl-3-(naphthalen-1-yl)-2-(3-(o-tolylsulfonyl)ureido)propanamide], the pEC50 under setting [1] was 5.00 to 6.00 and the pEC50 under setting [2] is 5.37. Take `C=C(C)c1ccccc1S(=O)(=O)NC(=O)N[C@@H](Cc1ccccc1)C(=O)N(C)c1ccc2c(c1)OCO2` [Example 134, (S)—N-(benzo[d][1,3]dioxol-5-yl)-N-methyl-3-phenyl-2-(3-((2-(prop-1-en-2-yl)phenyl)sulfonyl)ureido)propanamide]: the pEC50 under setting [1] is 5.00 to 6.00. For the compound `COc1ccc(N(C)C(=O)[C@H](Cc2cccnc2)NC(=O)NS(=O)(=O)c2ccccc2C)cc1` [Example 194, (S)—N-(4-methoxyphenyl)-N-methyl-3-(pyridin-3-yl)-2-(3-(o-tolylsulfonyl)ureido)propanamide], under setting [1], the pEC50 is 4.00 to 5.00. Consider `CN(C(=O)[C@H](Cc1ccccc1)NC(=O)NS(=O)(=O)c1cc(Br)ccc1Br)c1ccc2c(c1)OCO2` [Example 12, (S)—N-(benzo[d][1,3]dioxol-5-yl)-2-(3-((2,5-dibromophenyl)sulfonyl)ureido)-N-methyl-3-phenylpropanamide], for which, under setting [1], the pEC50 was over 7.00. For the compound `CCc1ccc(C)c(S(=O)(=O)NC(=O)N[C@@H](Cc2ccccc2)C(=O)N(CC)c2ccc(OC)cc2)c1` [Example 144, (S)—N-ethyl-2-(3-((5-ethyl-2-methylphenyl)sulfonyl)ureido)-N-(4-methoxyphenyl)-3-phenylpropanamide], the pEC50 was 6.00 to 7.00 under setting [1] and 6.21 under setting [2]. For the compound `CCN(C(=O)[C@H](Cc1ccccc1)NC(=O)NS(=O)(=O)c1cccc(-c2ccnn2C)c1C)c1ccc(OC)cc1` [Example 158, (S)—N-ethyl-N-(4-methoxyphenyl)-2-(3-((2-methyl-3-(1-methyl-1H-pyrazol-5-yl)phenyl)sulfonyl)ureido)-3-phenylpropanamide], the pEC50 was 6.00 to 7.00 under setting [1] and 6.64 under setting [2]. Regarding `CCN(C(=O)[C@H](Cc1ccccc1)NC(=O)NS(=O)(=O)c1ccc2c(ccn2CC)c1)c1ccc(OC)cc1` [Example 203, (S)—N-ethyl-2-(3-((1-ethyl-1H-indol-5-yl)sulfonyl)ureido)-N-(4-methoxyphenyl)-3-phenylpropanamide], the pEC50 under setting [1] was 6.00 to 7.00. As to `CCN(C(=O)[C@H](Cc1ccccc1)NC(=O)NS(=O)(=O)c1cccc(-c2ccoc2)c1)c1ccc(OC)cc1` [Example 121, (S)—N-ethyl-2-(3-((3-(furan-3-yl)phenyl)sulfonyl)ureido)-N-(4-methoxyphenyl)-3-phenylpropanamide], the pEC50 under setting [1] was over 7.00. `CN(C(=O)[C@H](Cc1ccccc1)NC(=O)NS(=O)(=O)Cc1ccccc1)c1ccc2c(c1)OCO2` [Example 10, (S)—N-(benzo[d][1,3]dioxol-5-yl)-2-(3-(benzylsulfonyl)ureido)-N-methyl-3-phenylpropanamide]: the pEC50 under setting [1] is 6.00 to 7.00. As to `CN(C(=O)[C@H](Cc1ccccc1)NC(=O)NS(=O)(=O)c1ccccc1)c1cccc(F)c1` [Example 93], the pEC50 under setting [1] is 5.00 to 6.00 and the pEC50 under setting [2] is 5.80. In the case of `CN(C(=O)[C@H](Cc1cc(F)cc(F)c1)NC(=O)NS(=O)(=O)c1ccccc1)c1ccc2c(c1)OC(F)(F)O2` [Example 41, (S)—N-(2,2-difluorobenzo[d][1,3]dioxol-5-yl)-3-(3,5-difluorophenyl)-N-methyl-2-(3-(phenylsulfonyl)ureido)propanamide], the pEC50 under setting [1] was 6.00 to 7.00.

Regarding `CCN(C(=O)[C@H](Cc1ccccc1)NC(=O)NS(=O)(=O)c1ccccc1C)c1ccc(Cl)c(C(F)(F)F)c1` [Example 182, (S)—N-(4-chloro-3-(trifluoromethyl)phenyl)-N-ethyl-3-phenyl-2-(3-(o-tolylsulfonyl)ureido)propanamide], the pEC50 under setting [1] was 6.00 to 7.00. Regarding `Cc1ccccc1S(=O)(=O)NC(=O)N[C@@H](Cc1cccc(Cl)c1)C(=O)N(C)c1ccc2c(c1)OCO2` [Example 55, (S)—N-(benzo[d][1,3]dioxol-5-yl)-3-(3-chlorophenyl)-N-methyl-2-(3-(o-tolylsulfonyl)ureido)propanamide], under setting [1], the pEC50 is 6.00 to 7.00.

Take `CN(C(=O)[C@H](Cc1cc(F)cc(F)c1)NC(=O)NS(=O)(=O)c1ccccc1Cl)c1ccc2c(c1)OC(F)(F)O2` [Example 39, (S)-2-(3-((2-chlorophenyl)sulfonyl)ureido)-N-(2,2-difluorobenzo[d][1,3]dioxol-5-yl)-3-(3,5-difluorophenyl)-N-methylpropanamide]: the pEC50 under setting [1] was 6.00 to 7.00.

For `COc1ccccc1N(C)C(=O)[C@H](Cc1ccccc1)NC(=O)NS(=O)(=O)c1ccccc1C` [Example 165, (S)—N-(2-methoxyphenyl)-N-methyl-3-phenyl-2-(3-(o-tolylsulfonyl)ureido)propanamide], the pEC50 under setting [1] is 5.00 to 6.00. For the compound `COc1cccc(S(=O)(=O)NC(=O)N[C@@H](Cc2ccccc2)C(=O)N(C)c2ccc3c(c2)OCO3)c1` [Example 20, (S)—N-(benzo[d][1,3]dioxol-5-yl)-2-(3-((3-methoxyphenyl)sulfonyl)ureido)-N-methyl-3-phenylpropanamide], the pEC50 under setting [1] was over 7.00 and the pEC50 under setting [2] is 7.05. Consider `CCN(C(=O)[C@H](Cc1ccccc1)NC(=O)NS(=O)(=O)c1cccc(-c2ccoc2)c1C)c1ccc(OC)cc1` [Example 122, (S)—N-ethyl-2-(3-((3-(furan-3-yl)-2-methylphenyl)sulfonyl)ureido)-N-(4-methoxyphenyl)-3-phenylpropanamide], for which the pEC50 under setting [1] is 6.00 to 7.00. Consider `Cc1ccccc1S(=O)(=O)NC(=O)N[C@@H](Cc1cccc(C(N)=O)c1)C(=O)N(C)c1ccc2c(c1)OCO2` [Example 80, (S)-3-(3-(benzo[d][1,3]dioxol-5-yl(methyl)amino)-3-oxo-2-(3-(o-tolylsulfonyl)ureido)propyl)benzamide], for which the pEC50 under setting [2] was under 4.00. Consider `COc1ccc(N(C)C(=O)[C@H](Cc2ccccn2)NC(=O)NS(=O)(=O)c2ccccc2C)cc1` [Example 192, (S)—N-(4-methoxyphenyl)-N-methyl-3-(pyridin-2-yl)-2-(3-(o-tolylsulfonyl)ureido)propanamide], for which the pEC50 under setting [1] is 4.00 to 5.00. Turning to `CN(C(=O)[C@H](Cc1ccccc1)NC(=O)NS(=O)(=O)c1ccccc1F)c1ccc2c(c1)OCO2` [Example 9, (S)—N-(benzo[d][1,3]dioxol-5-yl)-2-(3-((2-fluorophenyl)sulfonyl)ureido)-N-methyl-3-phenylpropanamide], the pEC50 under setting [1] was over 7.00. For `CN(C(=O)[C@H](Cc1ccccc1)NC(=O)NS(=O)(=O)c1ccccc1-c1cncnc1)c1ccc2c(c1)OCO2` [Example 127, (S)—N-(benzo[d][1,3]dioxol-5-yl)-N-methyl-3-phenyl-2-(3-((2-(pyrimidin-5-yl)phenyl)sulfonyl)ureido)propanamide], the pEC50 is 4.00 to 5.00 under setting [1] and 4.66 under setting [2]. `Cc1ccccc1S(=O)(=O)NC(=O)N[C@@H](Cc1ccc(F)c(F)c1)C(=O)N(C)c1ccc2c(c1)OCO2` [Example 60, (S)—N-(benzo[d][1,3]dioxol-5-yl)-3-(3,4-difluorophenyl)-N-methyl-2-(3-(o-tolylsulfonyl)ureido)propanamide]: the pEC50 by setting is: under setting [1], 6.00 to 7.00; under setting [2], 6.64. Consider `CN(C(=O)[C@H](Cc1ccccc1)NC(=O)NS(=O)(=O)c1ccccc1-c1ccoc1)c1ccc2c(c1)OCO2` [Example 50, (S)—N-(benzo[d][1,3]dioxol-5-yl)-2-(3-((2-(furan-3-yl)phenyl)sulfonyl)ureido)-N-methyl-3-phenylpropanamide], for which, under setting [1], the pEC50 was 6.00 to 7.00. In the case of `COc1ccc(OC)c(S(=O)(=O)NC(=O)N[C@@H](Cc2ccccc2)C(=O)N(C)c2ccc3c(c2)OCO3)c1` [Example 30, (S)—N-(benzo[d][1,3]dioxol-5-yl)-2-(3-((2,5-dimethoxyphenyl)sulfonyl)ureido)-N-methyl-3-phenylpropanamide], the pEC50 under setting [1] was over 7.00. The same measure, in the same setting: the figure for `COc1ccc2c(c1)CCCN2C(=O)[C@H](Cc1ccccc1)NC(=O)NS(=O)(=O)c1ccccc1C` [Example 171, (S)—N-((1-(6-methoxy-3,4-dihydroquinolin-1(2H)-yl)-1-oxo-3-phenylpropan-2-yl)carbamoyl)-2-methylbenzenesulfonamide] is 6.00 to 7.00. As for `CN(C(=O)[C@H](Cc1ccccc1)NC(=O)NS(=O)(=O)c1ccccc1Cl)c1ccc2c(c1)OC(F)(F)O2` [Example 38, (S)-2-(3-((2-chlorophenyl)sulfonyl)ureido)-N-(2,2-difluorobenzo[d][1,3]dioxol-5-yl)-N-methyl-3-phenylpropanamide], the pEC50 under setting [1] is 6.00 to 7.00 and the pEC50 under setting [2] was 6.51.

As for `CCN(C(=O)[C@H](Cc1ccccc1)NC(=O)NS(=O)(=O)c1ccccc1N)c1ccc(OC)cc1` [Example 147, (S)-2-(3-((2-aminophenyl)sulfonyl)ureido)-N-ethyl-N-(4-methoxyphenyl)-3-phenylpropanamide], the pEC50 under setting [1] is over 7.00. On to `CN(C(=O)[C@H](Cc1ccccc1)NC(=O)NS(=O)(=O)c1ccccc1Cl)c1ccc2c(c1)CCC2` [Example 206, (S)-2-(3-((2-chlorophenyl)sulfonyl)ureido)-N-(2,3-dihydro-1H-inden-5-yl)-N-methyl-3-phenylpropanamide], for which the pEC50 under setting [1] is over 7.00. Turning to `CCN(C(=O)[C@H](Cc1ccccc1)NC(=O)NS(=O)(=O)c1ccccc1C)c1ccc(C)c(C)c1` [Example 175, (S)—N-(3,4-dimethylphenyl)-N-ethyl-3-phenyl-2-(3-(o-tolylsulfonyl)ureido)propanamide], the pEC50 under setting [1] was over 7.00. On to `COc1ccc(N(C)C(=O)[C@H](Cc2cc(F)cc(F)c2)NC(=O)NS(=O)(=O)c2ccccc2C)cc1` [Example 205, (S)-3-(3,5-difluorophenyl)-N-(4-methoxyphenyl)-N-methyl-2-(3-(o-tolylsulfonyl)ureido)propanamide], for which the pEC50 by setting is: under setting [1], 6.00 to 7.00; under setting [2], 6.96.
